Values belong to the compound of their own block, whether it stands above or below them.
What was measured:
mice [1] = experiment: Maximal Electroshock Seizure (MES) test, mice i.p.; type: in vivo; settings: for activity in the MES test: mice; for MES, fraction of animals: mice i.p.
mice [2] = experiment: Subcutaneous Metrazol Seizure threshold (s.c. MET) test, mice i.p.; type: in vivo; settings: for activity in the s.c. MET test: mice, at 300 mg/kg; for s.c. MET, fraction of animals: mice i.p.
mice [3] = experiment: 6 Hz (minimal clonic seizure) model, mice i.p.; type: in vivo; settings: for 6 Hz (32 mA), fraction of animals: mice i.p.; for activity in the 6 Hz (minimal clonic seizure) model: mice
[4] = test system: rat dopaminergic N27 cells; experiment: N27 protection assay against oxidative stress (H2O2 or MPP+; MTT and LDH); type: cell-based; settings: drug 24 hours before 200 μM H2O2 or 640 μM MPP+
Source text: FIGS. 20A-25D data are shown illustrating neuroprotective and neuroregenerative effects observed in rat dopaminergic N27 cells. Rat dopaminergic N27 cells are commonly used in in vitro and in vivo model systems for studying Parkinson's disease. Parkinson's disease is a neurodegenerative disorder of the central nervous system that affects more than 6 million people worldwide. The motor symptoms of Parkinson's disease result from the death of dopamine generating cells in the substantia nigra, a region of the midbrain.
The N27 rat dopaminergic neuron cell line was harvested from E12 rat mesencephalic tissue and was transfected with SV40 to immortalize the cell line. The N27 cell line, when injected into the striata of 6-hydroxydopamine-lesioned rats (an animal model of PD) caused a time-dependent improvement in neurological deficits. This immortalized cell line has been carefully characterized in studies of dopamine biosynthesis, neurotoxicity and used as a dopaminergic neuron model studies.
The N27 in vitro Parkinson's disease model included a test of cell viability and cell toxicity in response to exposure to oxidative stress (e.g., either 200 μM H2O2 or 640 μM MPP+).
Cell viability was tested using the MTT assay. The MTT assay is a colorimetric analysis based on the activities of mitochondrial NAD(P)H-dependent cellular oxidoreductase enzymes. These enzymes are capable of reducing the tetrazolium dye, MTT [3-(4,5-dimethylthiazol-2-yl)-2,5-diphenyltetrazolium] bromide, to an insoluble formazan (purple). […] More viable cells equal more accumulation of the insoluble formazan dye.
Cell toxicity was tested using the […] (LDH) assay. Cells that are stressed secrete LDH. In general, the more cells are stressed, the LDH they secrete into their media. The LDH assay is a reliable colorimetric assay to measure quantitatively the […] (LDH) that is released into the cell culture media from damaged cells as a biomarker for cytotoxicity and cytolysis.
FIGS. 20A-25D present data from two types of assays: protection and recovery assays. In the protection assays, the drug candidate was applied to the cells at various concentrations for 24 hours, followed by the exposure to oxidative stress (either 200 μM H2O2 or 640 μM MPP+) for measuring neuroprotective effect. H2O2 provides a broad measure of oxidative stress, while MPP+ gives a more specific oxidative stress to dopaminergic neurons.
The protection assay results are shown in panels A-C of FIGS. 20-25 In the recovery assays, the cells were first damaged by exposure to H2O2 and then various concentrations of the drug were applied to the cells. The results for the recovery assays are shown the D panels of FIGS. 20-25.

SMN2 promoter = SMN2 promoter β-lactamase reporter assay in NSC34 motor neuron-like cells; type: cell-based; settings: for SMN2 promoter activity: treatment for 19 hours at a concentration of 1 μM; for Promoter (SMN2 promoter test, summary YES/NO): Table 13 summary
Method: FIG. 30 illustrates a screen for SMN2 expression of a number of compounds described herein.
SMN2 promoter activity was measured using NSC34 motor neuron-like cells stably transfected with a β-lactamase (BLA) reporter gene under the control of a 3.4-kilobase fragment of the SMN2 promoter. D156844 was used as a positive control for this assay.

[5] = test system: inclusion of exon 7 in SMN2 mRNAs; experiment: Exon 7 inclusion BLA reporter assay in NSC34 cell line; type: cell-based; settings: for effect on the inclusion of exon 7 in SMN2 transcripts / exon 7 test, particularly strong hits: NSC34 exon 7 BLA reporter cells; for Exon 7 inclusion (summary YES/NO): Table 13 summary
Source text: To measure changes in the inclusion of exon 7 in SMN2 mRNAs, another NSC34 cell line was used that stably transfected with a reporter construct which expresses BLA when exon 7 is included in the SMN2 minigene mRNAs. 5-(N-ethyl-N-isopropyl)-amiloride (EIPA) was used as a positive control for this assay. Data for tis assay is illustrated in FIG. 30.

mice [6] = experiment: Minimal motor impairment (MID50), mice i.p.; settings: mice i.p.
rats = experiment: Pilocarpine-induced Status Epilepticus in Rats (prevention; intervention @ 30 min); settings: Rattus norvegicus
[7] = read-out: Prevention, Protection

Compound: COCCCNC(=O)CC(C)c1ccc(OC(F)(F)F)cc1 (centres unmarked) [BM, N-(3-Methoxy-propyl)-3-(4-trifluoromethoxy-phenyl)-butyramide]
- activity in the MES test (mice [1]; at 300 mg/kg): activity
- activity in the s.c. MET test (mice [2]): activity
- 6 Hz (32 mA), fraction of animals (mice [3]; 100 mg/kg @ 0.5 hr): 1/4 @ 0.5 hr
- neuroprotective effect against H2O2 and MPP+ oxidative stresses (MTT and LDH assays) [4]: statistically significant, dose-dependent neuroprotection
- SMN2 promoter activity (SMN2 promoter): increased SMN2 promoter activity

Compound: NC(=O)CC1(c2ccc(Cl)cc2)CCCC1 [AJ]
- MES, fraction of animals (mice [1]; 100 mg/kg @ 0.25 hr): 3/3
- MES, fraction of animals (mice [1]; 100 mg/kg @ 1.0 hr): 1/3
- s.c. MET, fraction of animals (mice [2]; 300 mg/kg @ 0.5 hrs): 1/1 @ 0.5 hrs,
- Promoter (SMN2 promoter test, summary YES/NO) (SMN2 promoter): YES
- SMN2 promoter activity (SMN2 promoter): increased SMN2 promoter activity
- effect on the inclusion of exon 7 in SMN2 transcripts [5]: positive effect on the inclusion of exon 7
- exon 7 test, particularly strong hits [5]: Particularly strong hits
- Exon 7 inclusion (summary YES/NO) [5]: YES

- MID50, fraction of animals (mice [6]; 100 mg/kg @ 0.5 hr): 2/8 @0.5 hr
Compound: CNC(=O)CC(C)(C)c1ccc(Cl)cc1 [Compound B, 3-(4-Chlorophenyl)-3,N-dimethylbutyramide]
- neuroprotective effect against H2O2 and MPP+ oxidative stresses (MTT and LDH assays) [4]: potent dose-dependent neuroprotective effects
- responders at 300 mg/kg (rats; [7]): 43%

Compound: COc1ccc2cc(C(C)CC(N)=O)ccc2c1 (centres unmarked) [Compound AE, 3-(6-Methoxynaphthalen-2-yl)-butyramide]
- activity in the MES test (mice [1]; at 100 mg/kg): activity
- 6 Hz (32 mA), fraction of animals (mice [3]; 200 mg/kg @ 0.25 hr): 2/4 @ 0.25 hrs
- activity in the 6 Hz (minimal clonic seizure) model (mice [3]; at 200 mg/kg): activity
- neuroprotective effect against H2O2 and MPP+ oxidative stresses (MTT and LDH assays) [4]: statistically significant, dose-dependent neuroprotection

Compound: Cc1cc(C(CC(N)=O)C2CC2)ccc1F (centres unmarked) [AO, 3-Cyclopropyl-3-(4-fluoro-3-methylphenyl)-propionamide]
- MES, fraction of animals (mice [1]; 100 mg/kg @ 0.5 hr): 1/3 @
- activity in the MES test (mice [1]; at 100 mg/kg): activity
- activity in the s.c. MET test (mice [2]): activity
- neuroprotective effect against H2O2 and MPP+ oxidative stresses (MTT and LDH assays) [4]: statistically significant, dose-dependent neuroprotection
- responders at 97 mg/kg (rats; 0.5 h, read-out: Intervention @ 30 min, Protection): 50%
- responders at 65 mg/kg (rats; [7]): 86%

- MID50, fraction of animals (mice [6]; 100 mg/kg @ 0.5 hr): 1/8 @ 0.50 hr,
- MID50, fraction of animals (mice [6]; 300 mg/kg @ 0.5 hr): 4/4 @ 0.5
- MID50, fraction of animals (mice [6]; 300 mg/kg @ 4.0 hr): hr & 2/2
Compound: CC(O)(CC(N)=O)c1cccc(OC(F)(F)F)c1 (racemic) [CD]
- s.c. MET, fraction of animals (mice [2]; 30 mg/kg @ 0.5 hr): 3/5@ 0.50
- s.c. MET, fraction of animals (mice [2]; 100 mg/kg @ 0.5 hr): 1/1 @ 0.5,
- s.c. MET, fraction of animals (mice [2]; 100 mg/kg @ 4.0 hr): 1/1 @ 0.5,

Compound: CC(CC(N)=O)c1ccc(-c2ccccc2)c(F)c1 (centres unmarked) [Compound AX, 3-(2-Fluoro-biphenyl-4-yl)butyramide]
- 6 Hz (32 mA), fraction of animals (mice [3]; 100 mg/kg @ 0.5 hr): 3/4
- 6 Hz (32 mA), fraction of animals (mice [3]; 100 mg/kg @ 1.0 hr): 2/4
- 6 Hz (32 mA), fraction of animals (mice [3]; 100 mg/kg @ 2.0 hr): 1/4 @
- activity in the 6 Hz (minimal clonic seizure) model (mice [3]; at 100 mg/kg): activity
- SMN2 promoter assay, particularly strong hits (SMN2 promoter; NSC34 BLA reporter cells): particularly strong hits
- Promoter (SMN2 promoter test, summary YES/NO) (SMN2 promoter): YES
- SMN2 promoter activity (SMN2 promoter): increased SMN2 promoter activity
- effect on the inclusion of exon 7 in SMN2 transcripts [5]: positive effect on the inclusion of exon 7
- exon 7 test, particularly strong hits [5]: Particularly strong hits
- Exon 7 inclusion (summary YES/NO) [5]: YES

Compound: COCCNC(=O)CC(C)c1ccc(OC(F)(F)F)cc1 (centres unmarked) [BL, N-(2-Methoxy-ethyl)-3-(4-trifluoromethoxy-phenyl)-butyramide]
- MES, fraction of animals (mice [1]; 100 mg/kg @ 0.25 hr): 2/3 @
- activity in the MES test (mice [1]; at 100 mg/kg): activity
- activity in the 6 Hz (minimal clonic seizure) model (mice [3]; at 100 mg/kg): activity
- neuroprotective effect against H2O2 and MPP+ oxidative stresses (MTT and LDH assays) [4]: statistically significant, dose-dependent neuroprotection

- MID50, fraction of animals (mice [6]; 100 mg/kg @ 0.5 hr): 3/8 @ 0.5 hr,
Compound: CC(O)(CC(N)=O)c1cccc(C(F)(F)F)c1 (racemic) [CE]
- MES, fraction of animals (mice [1]; 30 mg/kg @ 0.50 hr): 1/1 @
- s.c. MET, fraction of animals (mice [2]; 30 mg/kg @ 0.5 hr): 1/5 @ 0.5 hr,
- s.c. MET, fraction of animals (mice [2]; 100 mg/kg @ 0.5 hr): 1/1 @ 0.5 hr,
